Patent publication US11566007B2, “Ras inhibitors” (Revolution Medicines, Inc., priority 2019, dated 2023)

Tests used:
[1] = test system: NCI-H358 cells (K-Ras G12C); assay: Potency assay: pERK in NCI-H358 cells; format: cell-based, human; settings: Homo sapiens, NCI-H358; H358 KRAS G12C; read-out: pERK EC50
Outline: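 4 h cpd, 37 °C; 10-pt 3-fold series, 10 mM DMSO top stock, duplicates. Readout pERK: AlphaLISA SureFire Ultra or In-Cell Western (IR-800CW secondary, DRAQ5 DNA stain). IC50, 4-PL fit vs log conc.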

NRAS Q61K = NRAS Q61K (Homo sapiens (Human), UniProt P01111+P62937, Q61K); assay: Ras-Raf (BRAF RBD) disruption / FRET / MOA assay, NRAS Q61K; format: biochemical; settings: NRAS Q61K; Ras-Raf disruption/FRET/MOA assay; read-out: IC50* NRAS Q61K FRET data
Sequence of NRAS Q61K (P01111 whole entry Q61K): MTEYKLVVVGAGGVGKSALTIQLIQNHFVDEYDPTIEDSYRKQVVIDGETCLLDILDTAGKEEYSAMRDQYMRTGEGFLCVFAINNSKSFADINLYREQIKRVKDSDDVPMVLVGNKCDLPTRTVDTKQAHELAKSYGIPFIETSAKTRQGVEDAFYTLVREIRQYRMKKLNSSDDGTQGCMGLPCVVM
Sequence of NRAS Q61K (P62937 whole entry): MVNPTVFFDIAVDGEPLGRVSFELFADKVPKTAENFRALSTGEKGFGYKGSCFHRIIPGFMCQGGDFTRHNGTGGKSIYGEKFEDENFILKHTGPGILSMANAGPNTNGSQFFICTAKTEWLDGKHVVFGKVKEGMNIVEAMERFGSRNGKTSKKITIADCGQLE
Outline: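 TR-FRET disruption of nucleotide-loaded Ras binding to BRAF RBD via compound-driven ternary complex with cyclophilin A. Compound as 10-point 3-fold series from 30 μM final, 3 h at 25° C, then anti-His Eu-W1024 (10 nM) and anti-GST allophycocyanin (50 nM) for 1.5 h. IC50 from decreased FRET ratio versus DMSO.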

SMILES	EC50 [1]	IC50 (NRAS Q61K)
C=CC(=O)N1CC[C@H](C(=O)N(C)[C@H](C(=O)N[C@H]2Cc3cc(O)cc(c3)-c3ccc4c(c3)c(c(-c3cc(C)ccc3[C@H](C)OC)n4CC)CC(C)(C)COC(=O)[C@@H]3CCCN(N3)C2=O)C(C)C)C1 (atropisomer, axis not shown) [Example A167]	< 5 µM	0.1 to 1 µM
CC#CC(=O)N1CCC(C(=O)N(C)[C@H](C(=O)N[C@H]2Cc3nc(cs3)-c3ccc4c(c3)c(c(-c3cccnc3[C@H](C)OC)n4CC)CC(C)(C)COC(=O)[C@@H]3CCCN(N3)C2=O)C(C)C)C1 (atropisomer, axis not shown) [Example A168]	< 5 µM	1 to 10 µM
C=CC(=O)N1CC[C@H](C(=O)N(C)[C@H](C(=O)N[C@H]2Cc3cccc(c3)-c3ccc4c(c3)c(c(-c3cccnc3[C@H](C)OC)n4CC(F)F)CC(C)(C)COC(=O)[C@@H]3CCCN(N3)C2=O)C(C)C)C1 (atropisomer, axis not shown) [Example A335]	< 5 µM	1 to 10 µM
C=CC(=O)N1CC[C@H](C(=O)N(C)[C@H](C(=O)N[C@H]2Cc3cc(cc(C(F)F)c3)-c3ccc4c(c3)c(c(-c3cccnc3[C@H](C)OC)n4CC)CC(C)(C)COC(=O)[C@@H]3CCCN(N3)C2=O)C(C)C)C1 (atropisomer, axis not shown) [Example A341, (3S)-1-acryloyl-N-((2S)-1-(((6^3S,4S)-2^5-(difluoromethyl)-1^1-ethyl-1^2-(2-((S)-1-methoxyethyl)pyridin-3-yl)-10,10-dimethyl-5,7-dioxo-6^1,6^2,6^3,6^4,6^5,6^6-hexahydro-1^1H-8-oxa-1(5,3)-indola-6(1,3)-pyridazina-2(1,3)-benzenacycloundecaphane-4-yl)amino)-3-methyl-1-oxobutan-2-yl)-N-methylpyrrolidine-3-carboxamide]	< 5 µM	1 to 10 µM
C=CC(=O)N1CC(OC[C@H](C(=O)N[C@H]2Cc3cccc(c3)-c3ccc4c(c3)c(c(-c3cccnc3[C@H](C)OC)n4CC(F)(F)F)CC(C)(C)COC(=O)[C@@H]3CCCN(N3)C2=O)C(C)C)C1 (atropisomer, axis not shown) [Example A344]	< 5 µM	1 to 10 µM
C=CC(=O)N1CC(OC[C@H](C(=O)N[C@H]2Cc3cc(cc(C(F)F)c3)-c3ccc4c(c3)c(c(-c3cccnc3[C@H](C)OC)n4CC)CC(C)(C)COC(=O)[C@@H]3CCCN(N3)C2=O)C(C)C)C1 (atropisomer, axis not shown) [Example A345]	< 5 µM	> 10 µM
C=CC(=O)N1CC2(COCCN2C(=O)N(C)[C@H](C(=O)N[C@H]2Cc3nc(cs3)-c3ccc4c(c3)c(c(-c3cccnc3[C@H](C)OC)n4CC)CC(C)(C)COC(=O)[C@@H]3CCCN(N3)C2=O)C(C)C)C1 (atropisomer, axis not shown) [Example A352]	< 5 µM	1 to 10 µM
C=CC(=O)N1CC[C@@]2(C1)CN(C(=O)N(C)[C@H](C(=O)N[C@H]1Cc3nc(cs3)-c3ccc4c(c3)c(c(-c3cccnc3[C@H](C)OC)n4CC)CC(C)(C)COC(=O)[C@@H]3CCCN(N3)C1=O)C(C)C)CCO2 (atropisomer, axis not shown) [Example A353]	< 5 µM	0.01 to 0.1 µM
C=CC(=O)NC[C@H]1CCN1C(=O)N(C)[C@H](C(=O)N[C@H]1Cc2nc(cs2)-c2ccc3c(c2)c(c(-c2cccnc2[C@H](C)OC)n3CC)CC(C)(C)COC(=O)[C@@H]2CCCN(N2)C1=O)C(C)C (atropisomer, axis not shown) [Example A356]	< 5 µM	0.1 to 1 µM
C=C(C)C(=O)N1CC(N(C)C(=O)N(C)[C@H](C(=O)N[C@H]2Cc3nc(cs3)-c3ccc4c(c3)c(c(-c3cccnc3[C@H](C)OC)n4CC)CC(C)(C)COC(=O)[C@@H]3CCCN(N3)C2=O)C(C)C)C1 (atropisomer, axis not shown) [Example A360]	< 5 µM	0.1 to 1 µM
CCn1c(-c2cccnc2[C@H](C)OC)c2c3cc(ccc31)-c1csc(n1)C[C@H](NC(=O)[C@H](C(C)C)N(C)C(=O)N(C)C1CN(C(=O)/C=C/CN(C)C)C1)C(=O)N1CCC[C@H](N1)C(=O)OCC(C)(C)C2 (atropisomer, axis not shown) [Example A361]	< 5 µM	0.1 to 1 µM
